Reference: patent publication US7294637B2 (Sepracor, Inc., priority 2000, dated 2007)
Where two headings read alike, the source gives them in different places.

Key:
[1] = biological target: T1, norepinephrine transporter (Homo sapiens, UniProt P23975); assay: NE uptake: displacement of norephinephrine ligands in vitro (methods of Galli et al.); assay type: binding; settings: NE Uptake, Uptake Profile (IC50, nM)
serotonin transporter [2] = biological target: T2, serotonin transporter (Homo sapiens, UniProt P31645); assay: 5-HT uptake: displacement of serotonin ligands in vitro (methods of Gu et al.); assay type: binding; settings: displacement of serotonin ligands in vitro; read-out: 5-HT Uptake, Uptake Profile (IC50)
T2 sequence (P31645 whole entry): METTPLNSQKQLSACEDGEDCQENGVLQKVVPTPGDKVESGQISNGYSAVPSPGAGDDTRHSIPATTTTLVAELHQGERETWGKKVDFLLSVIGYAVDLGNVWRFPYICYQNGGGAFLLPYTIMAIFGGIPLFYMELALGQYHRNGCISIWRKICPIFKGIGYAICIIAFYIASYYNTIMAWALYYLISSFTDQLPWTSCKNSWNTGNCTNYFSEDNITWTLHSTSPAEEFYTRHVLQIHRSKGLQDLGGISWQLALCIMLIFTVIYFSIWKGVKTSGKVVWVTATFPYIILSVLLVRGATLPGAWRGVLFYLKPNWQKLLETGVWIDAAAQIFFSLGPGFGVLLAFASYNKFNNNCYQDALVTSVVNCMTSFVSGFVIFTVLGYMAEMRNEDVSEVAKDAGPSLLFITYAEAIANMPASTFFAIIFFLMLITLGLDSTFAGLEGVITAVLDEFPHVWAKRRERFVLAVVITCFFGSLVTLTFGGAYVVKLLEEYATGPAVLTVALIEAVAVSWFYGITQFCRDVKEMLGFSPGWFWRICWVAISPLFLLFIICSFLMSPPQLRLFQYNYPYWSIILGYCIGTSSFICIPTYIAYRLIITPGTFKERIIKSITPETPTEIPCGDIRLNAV

[3] = biological target: T1, norepinephrine transporter; assay: Functional activity, norephinephrine uptake inhibition in MDCK cell lines; assay type: cell-based
mouse = assay: Acute toxicity assessment, maximum tolerated dose i.v., mouse; assay type: in vivo; settings: mice
Experimental: (§1) An in vivo evaluation was carried out to determine the maximum tolerated dose of numerous test compounds in two animal species (mouse and rat). The compounds were administered i.v. and the animals were then observed for 72 h. Compounds 114, 115, 113, 110, 124, 125, 129, and 130 were solubilized in 5% dextrose (w/v)/polyethylene glycol 400 (4:1 v/v). Compounds 126, 127, 131, and 132 were solubilized in 10% hydroxypropyl-β-cyclodextrin (w/v).

rat = assay: Acute toxicity assessment, maximum tolerated dose i.v., rat; assay type: in vivo; settings: rats
Experimental: as §1

Sprague-Dawley rats [4] = assay: Spontaneous locomotor activity in rats (Example 141); assay type: in vivo, rat
Experimental: The effect of 124 and 126 on spontaneous locomotor activity in rats was determined according to the procedures outlined by Silverman et al. (Motor Activity. In “Animal behavior in the laboratory”, Chapman and Hall eds, London, p. 79-92, 1978) and Boissier et al. (Arch. Int. Pharmacodyn. 1965, 158, 212. )
Test items and test item vehicles were administered to male Sprague-Dawley rats (n=10) as a single i.p. dose (vehicle A=10% hydroxypropyl-β-cyclodextrin in water; vehicle B=4:1 5% aqueous dextrose:PEG 400). […] Locomotor activity was determined during 20 minute periods using video image analyzers. Images recorded with video cameras were digitalized and displacements of the center of gravity of the digital image spot were tracked and analyzed. When the speed of displacement of the center of gravity of the spot was below 4.26 cm/sec, the movement was considered as inactivity. When this speed was between 4.26 and 6.75 cm/sec, the movement was considered as a small movement. When this speed was above 6.75 cm/sec, the movement was considered as a large movement. The number of occurrences, distance and duration of fast and slow movements, number of occurrences and duration of periods of inactivity and number of rears were measured.

rats [5] = assay type: in vivo, rat; settings: 1 h before test
Experimental: The animals were preconditioned in a pretest session, where the rats were individually forced to swim inside a vertical plexiglass cylinder containing water maintained at 19-20° C. […] Twenty four hours later, the compounds were administered intraperitoneal to the animals. One hour after administration of the test compound, animals were put back into the cylinder containing water. The total duration of immobility was measured during the last 4 minutes of a 6 minute test.
(§2) The results are expressed as the percentage of variation of the total duration of immobility calculated from the mean value of the vehicle-treated group (% variation=[(immobility duration of vehicle-immobility duration of test compound)/(immobility duration of vehicle)]×100%).

rats [6] = assay: Behavioral despair assay in rats, 3 i.p. injections (Example 143); assay type: in vivo, rat; settings: for % variation of the total duration of immobility: 3 i.p. injections 24 h, 5 h and 1 h before test
From the text: The objective of this study was to assess the antidepressant effects of test compounds 124, 125, 126, and 127 in the behavioral despair assay in rats according to the methods described by Porsolt R. D., Anton G., Blavet N., Jalfre M., Behavioural despair in rats: a new model sensitive to antidepressant treatment, Eur. J. Pharmacol., 1978, 47, 379-391. The animals were preconditioned in a pretest session, where the rats were individually forced to swim inside a vertical plexiglass cylinder containing water maintained at 19-20° C. After 15 minutes in the water, they were allowed to dry for 15 minutes in a heated enclosure. Twenty four hours later, they were replaced in the cylinder and the total duration of immobility was measured during a 5 minute test (test session). The test compounds and vehicle were administered as a series of 3 intraperitoneal injections 24 h, 5 h and 1 h before the 5 minute test on the second day.
as §2

Sprague-Dawley rats [7] = assay: Spontaneous locomotor activity in rats, 1-24 hours (Example 223); assay type: in vivo, rat; settings: 10 mg/kg i.p.
Experimental: The effect of 124 and 126 on spontaneous locomotor activity in rats was determined according to the procedures outlined by Silverman et al. (Motor Activity. In “Animal behavior in the laboratory”, Chapman and Hall eds, London, p. 79-92, 1978) and Boissier et al. (Arch. Int. Pharmacodyn. 1965, 158, 212. ) Test items and test item vehicles were administered to male Sprague-Dawley rats (n=10) as a single i.p. dose. One, three, five, eight and twenty four hours following administration, rats were placed in a plastic box 30×30 cm in a room with low light intensity (maximum 50 lux). Locomotor activity was determined during 20 minute periods using video image analyzers. Images recorded with video cameras were digitalized and displacements of the center of gravity of the digital image spot were tracked and analyzed. When the speed of displacement of the center of gravity of the spot was below 4.26 cm/sec, the movement was considered as inactivity. When this speed was between 4.26 and 6.75 cm/sec, the movement was considered as a small movement. When this speed was above 6.75 cm/sec, the movement was considered as a large movement. The number of occurrences, distance and duration of fast and slow movements, number of occurrences and duration of periods of inactivity and number of rears were measured.

DAT = DAT (Homo sapiens, UniProt Q01959); assay: cell-based; set-up: expressed in transfected cells; settings: hDAT cell line; read-out: DA Uptake, Functional Assays (antagonism, EC50)
Sequence of DAT (Q01959 whole entry): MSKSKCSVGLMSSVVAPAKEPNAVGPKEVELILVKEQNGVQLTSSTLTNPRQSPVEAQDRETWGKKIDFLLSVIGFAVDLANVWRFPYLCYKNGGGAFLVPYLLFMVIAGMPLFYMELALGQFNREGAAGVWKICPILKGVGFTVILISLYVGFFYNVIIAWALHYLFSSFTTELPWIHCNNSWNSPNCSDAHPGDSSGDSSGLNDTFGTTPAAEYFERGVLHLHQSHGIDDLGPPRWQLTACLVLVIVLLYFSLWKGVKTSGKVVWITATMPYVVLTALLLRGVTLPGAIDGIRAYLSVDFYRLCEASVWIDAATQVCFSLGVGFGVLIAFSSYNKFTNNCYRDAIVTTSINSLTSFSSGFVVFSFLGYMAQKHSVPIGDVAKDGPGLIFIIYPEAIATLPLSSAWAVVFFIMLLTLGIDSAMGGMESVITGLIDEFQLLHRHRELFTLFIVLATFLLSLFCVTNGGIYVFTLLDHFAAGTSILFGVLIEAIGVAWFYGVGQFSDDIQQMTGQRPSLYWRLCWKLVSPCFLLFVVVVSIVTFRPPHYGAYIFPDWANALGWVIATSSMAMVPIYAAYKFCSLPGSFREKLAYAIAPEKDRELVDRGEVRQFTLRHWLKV

serotonin transporter [8] = biological target: T2, serotonin transporter; assay: Functional activity, serotonin uptake inhibition in human HEK-293 cell lines; assay type: cell-based; set-up: expressed in transfected cells; host or cells: HEK-293; settings: human HEK-293 cell lines; read-out: 5-HT Uptake, Functional Assays (antagonism, EC50)
dopamine transporter = dopamine transporter (Homo sapiens, UniProt Q01959); assay: DA uptake: displacement of dopamine ligands in vitro (methods of Gu et al.); settings: DA Uptake, Uptake Profile (IC50, nM), displacement of dopamine ligands in vitro
Sequence of dopamine transporter (Q01959 whole entry): as above

T1 sequence (P23975 whole entry): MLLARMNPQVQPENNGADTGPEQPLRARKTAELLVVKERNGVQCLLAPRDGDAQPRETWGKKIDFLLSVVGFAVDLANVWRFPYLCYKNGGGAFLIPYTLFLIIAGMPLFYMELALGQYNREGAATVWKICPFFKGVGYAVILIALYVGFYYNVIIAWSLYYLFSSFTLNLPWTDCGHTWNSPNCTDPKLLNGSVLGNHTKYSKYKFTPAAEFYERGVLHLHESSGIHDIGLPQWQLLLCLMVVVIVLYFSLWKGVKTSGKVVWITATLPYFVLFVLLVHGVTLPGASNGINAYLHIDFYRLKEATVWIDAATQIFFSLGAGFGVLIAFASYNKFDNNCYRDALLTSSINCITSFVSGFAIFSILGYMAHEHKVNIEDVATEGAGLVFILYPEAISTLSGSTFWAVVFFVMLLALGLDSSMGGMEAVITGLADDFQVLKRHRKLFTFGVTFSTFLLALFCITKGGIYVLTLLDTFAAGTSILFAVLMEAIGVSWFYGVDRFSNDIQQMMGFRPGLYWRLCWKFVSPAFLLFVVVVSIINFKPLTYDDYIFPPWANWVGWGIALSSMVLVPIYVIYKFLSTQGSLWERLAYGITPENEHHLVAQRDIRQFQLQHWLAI

O[C@H](CN1CCC[C@H](COc2ccc(C(F)(F)F)cc2)C1)C1(c2ccc(Cl)cc2)CCC1 [compound 124, 1S-1-[1-(4-Chloro-phenyl)-cyclobutyl]-2-[(3S)-3-(4-trifluoromethyl-phenoxymethyl)-piperidin-1-yl]-ethanol]
IC50 [1]: < 100 nM
IC50 (serotonin transporter [2]): < 1000 nM
EC50 [3]: < 1000 nM
tolerability and mortality after 72 h (mouse; 10 mg/kg i.v.): well tolerated
tolerability and mortality after 72 h (rat; 10 mg/kg i.v.): well tolerated
Small Movement Occurrences (Sprague-Dawley rats [4]; 5 mg/kg i.p.): 484.5 ± 114.1
Large Movement Occurrences (Sprague-Dawley rats [4]; 5 mg/kg i.p., 20 min): 228.7 ± 22.5 ^
Small Movement Occurrences (Sprague-Dawley rats [4]; 5 mg/kg i.p., 20 min): 589.2 ± 50.4 ^
Large Movement Occurrences (Sprague-Dawley rats [4]; 5 mg/kg i.p., 60 min): 74.3 ± 14.8
Small Movement Occurrences (Sprague-Dawley rats [4]; 5 mg/kg i.p., 60 min): 232.8 ± 33.6 ^
Large Movement Occurrences (Sprague-Dawley rats [4]; 5 mg/kg i.p., 120 min): 168.5 ± 61.5 ^
Small Movement Occurrences (Sprague-Dawley rats [4]; 5 mg/kg i.p., 120 min): 443.1 ± 100.6
Large Movement Occurrences (Sprague-Dawley rats [4]; 5 mg/kg i.p., 180 min): 212.5 ± 65.1 ^
Large Movement Occurrences (Sprague-Dawley rats [4]; 10 mg/kg i.p., 20 min): 391.5 ± 63.3
Small Movement Occurrences (Sprague-Dawley rats [4]; 10 mg/kg i.p., 20 min): 919.6 ± 96.4
Large Movement Occurrences (Sprague-Dawley rats [4]; 10 mg/kg i.p., 60 min): 427.6 ± 95.8
Small Movement Occurrences (Sprague-Dawley rats [4]; 10 mg/kg i.p., 60 min): 965.2 ± 153.9
Large Movement Occurrences (Sprague-Dawley rats [4]; 10 mg/kg i.p., 120 min): 603.5 ± 97.4
Small Movement Occurrences (Sprague-Dawley rats [4]; 10 mg/kg i.p., 120 min): 1201.4 ± 160.9
locomotor activity compared to control animals (Sprague-Dawley rats [4]; dosed at 5 and 10 mg/kg i.p.): significant increase
% variation of the total duration of immobility (rats [5]; 2.5 mg/kg i.p.): 6%
% variation of the total duration of immobility (rats [5]; 10 mg/kg i.p.): 91%
% variation of the total duration of immobility (rats [6]; 1.0 mg/kg): 29%
% variation of the total duration of immobility (rats [6]; 2.0 mg/kg): 71%
effectiveness (statistically significant variation >30%) (rats [6]; 2.5 mg/kg): effective
% variation of the total duration of immobility (rats [6]; 2.5 mg/kg): 59%
Large Movement Occurrences (Sprague-Dawley rats [7]; 1 hour): 655 ± 83
Small Movement Occurrences (Sprague-Dawley rats [7]; 1 hour): 1258 ± 83
Large Movement Occurrences (Sprague-Dawley rats [7]; 3 hours): 751 ± 122
Small Movement Occurrences (Sprague-Dawley rats [7]; 3 hours): 1386 ± 96
Large Movement Occurrences (Sprague-Dawley rats [7]; 5 hours): 616 ± 82
Small Movement Occurrences (Sprague-Dawley rats [7]; 5 hours): 1277 ± 100
Large Movement Occurrences (Sprague-Dawley rats [7]; 8 hours): 455 ± 69
Small Movement Occurrences (Sprague-Dawley rats [7]; 8 hours): 1042 ± 109
Large Movement Occurrences (Sprague-Dawley rats [7]; 24 hours): 440 ± 55
Small Movement Occurrences (Sprague-Dawley rats [7]; 24 hours): 934 ± 87
locomotor activity compared to control animals (Sprague-Dawley rats [7]; at all times tested (1, 3, 5, 8, 24 hours)): significant increase
EC50 (DAT): < 10 nM
EC50 (serotonin transporter [8]): < 1000 nM
IC50 (dopamine transporter): < 10 nM

O[C@@H](CN1CCC[C@@H](COc2ccc(C(F)(F)F)cc2)C1)C1(c2ccc(Cl)cc2)CCC1 [compound 127, 1S-1-[1-(4-Chloro-phenyl)-cyclobutyl]-2-[(3R)-3-(4-trifluoromethyl-phenoxymethyl)-piperidin-1-yl]-ethanol]
IC50 [1]: < 100 nM
IC50 (serotonin transporter [2]): > 1000 nM
EC50 [3]: < 1000 nM
tolerability and mortality after 72 h (mouse; 30 mg/kg i.v.): well tolerated
tolerability and mortality after 72 h (rat; 30 mg/kg i.v.): well tolerated
% variation of the total duration of immobility (rats [5]; 2.5 mg/kg i.p.): 25%
% variation of the total duration of immobility (rats [5]; 10 mg/kg i.p.): 67%
% variation of the total duration of immobility (rats [6]; 1.0 mg/kg): 14%
% variation of the total duration of immobility (rats [6]; 2.0 mg/kg): 39%
effectiveness (statistically significant variation >30%) (rats [6]; 2.5 mg/kg): effective
% variation of the total duration of immobility (rats [6]; 2.5 mg/kg): 39%
% variation of the total duration of immobility (rats [6]; 3.0 mg/kg): 64%
EC50 (DAT): < 10 nM
EC50 (serotonin transporter [8]): > 1000 nM
IC50 (dopamine transporter): < 10 nM

O[C@@H](CN1CCC[C@H](COc2ccc(C(F)(F)F)cc2)C1)C1(c2ccc(Cl)cc2)CCC1 [compound 125, 1R-1-[1-(4-Chloro-phenyl)-cyclobutyl]-2-[(3S)-3-(4-trifluoromethyl-phenoxymethyl)-piperidin-1-yl]-ethanol]
IC50 [1]: < 100 nM
IC50 (serotonin transporter [2]): < 1000 nM
EC50 [3]: < 1000 nM
tolerability and mortality after 72 h (mouse; 30 mg/kg i.v.): well tolerated
tolerability and mortality after 72 h (rat; 30 mg/kg i.v.): well tolerated
% variation of the total duration of immobility (rats [5]; 10 mg/kg i.p.): 55%
% variation of the total duration of immobility (rats [6]; 2.5 mg/kg): 12%
EC50 (DAT): < 10 nM
EC50 (serotonin transporter [8]): < 1000 nM
IC50 (dopamine transporter): < 10 nM
